# Laboratory results taken from PubChem BioAssay AID1963846 (Molecular Pharmacology Branch, DTP, NCI, 2024).
# Tested on: 454973-116-R2-J3-PDC complex spheroid viability
# Assay: Anticancer human tumor 454973-116-R2-J3-PDC patient-derived pancreatic carcinoma cell line growth inhibition [POLQ]
# Details: for IC50: curve of first compound; for viability, T/C: stronger effect = lower value
# Method in brief: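 Growth inhibition in 3D: complex spheroids (tumor PDC, HUVEC, MSC) treated with POLQ inhibitor combinations; where Cmax unknown, highest tested concentration 10 microM, except SN-38 at 1 microM.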
# [1] = second compound 0.0316 µM, first compound 0.0316 µM
# [2] = second compound 0.0316 µM, first compound 0.1 µM
# [3] = second compound 0.0316 µM, first compound 0.316 µM
# [4] = second compound 0.0316 µM, first compound 1 µM
# [5] = second compound 0.0316 µM, first compound 3.16 µM
# [6] = second compound 0.0316 µM, first compound 10 µM
# [7] = second compound 0.1 µM, first compound 0.0316 µM
# [8] = second compound 0.1 µM, first compound 0.1 µM
# [9] = second compound 0.1 µM, first compound 0.316 µM
# [10] = second compound 0.1 µM, first compound 1 µM
# [11] = second compound 0.1 µM, first compound 3.16 µM
# [12] = second compound 0.1 µM, first compound 10 µM
# [13] = second compound 0.316 µM, first compound 0.0316 µM
# [14] = second compound 0.316 µM, first compound 0.1 µM
# [15] = second compound 0.316 µM, first compound 0.316 µM
# [16] = second compound 0.316 µM, first compound 1 µM
# [17] = second compound 0.316 µM, first compound 3.16 µM
# [18] = second compound 0.316 µM, first compound 10 µM
# [19] = second compound 1 µM, first compound 0.0316 µM
# [20] = second compound 1 µM, first compound 0.1 µM
# [21] = second compound 1 µM, first compound 0.316 µM
# [22] = second compound 1 µM, first compound 1 µM
# [23] = second compound 1 µM, first compound 3.16 µM
# [24] = second compound 1 µM, first compound 10 µM
# [25] = second compound 3.16 µM, first compound 0.0316 µM
# [26] = second compound 3.16 µM, first compound 0.1 µM
# [27] = second compound 3.16 µM, first compound 0.316 µM
# [28] = second compound 3.16 µM, first compound 1 µM
# [29] = second compound 3.16 µM, first compound 3.16 µM
# [30] = second compound 3.16 µM, first compound 10 µM
# [31] = second compound 10 µM, first compound 0.0316 µM
# [32] = second compound 10 µM, first compound 0.1 µM
# [33] = second compound 10 µM, first compound 0.316 µM
# [34] = second compound 10 µM, first compound 1 µM
# [35] = second compound 10 µM, first compound 3.16 µM
# [36] = second compound 10 µM, first compound 10 µM
# 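Further: spheroids exposed to drugs for seven days before measurement.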
# 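Wherever viability, T/C is given: percent viability relative to DMSO vehicle control wells taken as 100%.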
compound,measurement,setting,value
CCc1cc2c(N3CCc4c(cc(Cn5ccnc5)cc4-c4cn(C)nc4C(F)(F)F)C3=O)ccnc2c(OC)n1 + Cc1cccc(N(C)C(=O)C2C(O)CCN2c2nc(C)cc(C(F)(F)F)c2C#N)c1,IC50,second compound 0.0316 µM,> 10 µM
same,IC50,second compound 0.1 µM,> 10 µM
same,IC50,second compound 0.316 µM,> 10 µM
same,IC50,second compound 1 µM,> 10 µM
same,IC50,second compound 3.16 µM,> 10 µM
same,IC50,second compound 10 µM,> 10 µM
same,"viability, T/C",[1],89.3%
same,"viability, T/C",[2],86.2%
same,"viability, T/C",[3],93.7%
same,"viability, T/C",[4],77.8%
same,"viability, T/C",[5],82.2%
same,"viability, T/C",[6],62%
same,"viability, T/C",[7],102%
same,"viability, T/C",[8],86%
same,"viability, T/C",[9],82%
same,"viability, T/C",[10],85.9%
same,"viability, T/C",[11],69.3%
same,"viability, T/C",[12],62.1%
same,"viability, T/C",[13],94%
same,"viability, T/C",[14],89%
same,"viability, T/C",[15],84.4%
same,"viability, T/C",[16],83.4%
same,"viability, T/C",[17],74%
same,"viability, T/C",[18],61.5%
same,"viability, T/C",[19],95.2%
same,"viability, T/C",[20],85.2%
same,"viability, T/C",[21],96%
same,"viability, T/C",[22],78.4%
same,"viability, T/C",[23],80.8%
same,"viability, T/C",[24],61.7%
same,"viability, T/C",[25],97.8%
same,"viability, T/C",[26],97.8%
same,"viability, T/C",[27],91.2%
same,"viability, T/C",[28],74%
same,"viability, T/C",[29],72.2%
same,"viability, T/C",[30],57.3%
same,"viability, T/C",[31],91.3%
same,"viability, T/C",[32],87.5%
same,"viability, T/C",[33],72.1%
same,"viability, T/C",[34],74%
same,"viability, T/C",[35],70.3%
same,"viability, T/C",[36],55.8%
CCc1cc2c(N3CCc4c(cc(Cn5ccnc5)cc4-c4cn(C)nc4C(F)(F)F)C3=O)ccnc2c(OC)n1 + COC1C(OC(N)=O)C(O)C(Oc2ccc3c(O)c(NC(=O)c4ccc(O)c(CC=C(C)C)c4)c(=O)oc3c2C)OC1(C)C,IC50,second compound 0.0316 µM,> 10 µM
same,IC50,second compound 0.1 µM,> 10 µM
same,IC50,second compound 0.316 µM,> 10 µM
same,IC50,second compound 1 µM,> 10 µM
same,IC50,second compound 3.16 µM,> 10 µM
same,IC50,second compound 10 µM,> 10 µM
same,"viability, T/C",[1],109%
same,"viability, T/C",[2],107%
same,"viability, T/C",[3],96.7%
same,"viability, T/C",[4],86.4%
same,"viability, T/C",[5],90.8%
same,"viability, T/C",[6],72.8%
same,"viability, T/C",[7],101%
same,"viability, T/C",[8],96%
same,"viability, T/C",[9],96.8%
same,"viability, T/C",[10],96.8%
same,"viability, T/C",[11],91.5%
same,"viability, T/C",[12],81.5%
same,"viability, T/C",[13],99.8%
same,"viability, T/C",[14],104%
same,"viability, T/C",[15],96.5%
same,"viability, T/C",[16],96.4%
same,"viability, T/C",[17],88.8%
same,"viability, T/C",[18],82.1%
same,"viability, T/C",[19],112%
same,"viability, T/C",[20],104%
same,"viability, T/C",[21],99%
same,"viability, T/C",[22],93.7%
same,"viability, T/C",[23],85.8%
same,"viability, T/C",[24],76.6%
same,"viability, T/C",[25],107%
same,"viability, T/C",[26],102%
same,"viability, T/C",[27],97.8%
same,"viability, T/C",[28],86.8%
same,"viability, T/C",[29],82.4%
same,"viability, T/C",[30],72.2%
same,"viability, T/C",[31],113%
same,"viability, T/C",[32],99%
same,"viability, T/C",[33],96%
same,"viability, T/C",[34],86.5%
same,"viability, T/C",[35],84%
same,"viability, T/C",[36],72.9%
COc1cc(C2c3cc4c(cc3C(OC3OC5COC(C)OC5C(O)C3O)C3COC(=O)C23)OCO4)cc(OC)c1O (stereo unspecified) + Nc1ccc(C#CCN(C(=O)Cc2ncc(C(F)(F)F)cc2C(F)(F)F)c2ccc(F)cc2)nn1,IC50,second compound 0.0316 µM,0.934 µM
same,IC50,second compound 0.1 µM,0.923 µM
same,IC50,second compound 0.316 µM,0.817 µM
same,IC50,second compound 1 µM,0.785 µM
same,IC50,second compound 3.16 µM,0.775 µM
same,IC50,second compound 10 µM,0.771 µM
same,"viability, T/C",[1],98.2%
same,"viability, T/C",[2],94.3%
same,"viability, T/C",[3],78.4%
same,"viability, T/C",[4],50.9%
same,"viability, T/C",[5],14.2%
same,"viability, T/C",[6],8.22%
same,"viability, T/C",[7],107%
same,"viability, T/C",[8],102%
same,"viability, T/C",[9],84.1%
same,"viability, T/C",[10],49.8%
same,"viability, T/C",[11],12.3%
same,"viability, T/C",[12],7.75%
same,"viability, T/C",[13],98.5%
same,"viability, T/C",[14],106%
same,"viability, T/C",[15],82.7%
same,"viability, T/C",[16],42.6%
same,"viability, T/C",[17],15.1%
same,"viability, T/C",[18],5.73%
same,"viability, T/C",[19],112%
same,"viability, T/C",[20],94.6%
same,"viability, T/C",[21],79.1%
same,"viability, T/C",[22],44.3%
same,"viability, T/C",[23],12.8%
same,"viability, T/C",[24],7.26%
same,"viability, T/C",[25],107%
same,"viability, T/C",[26],109%
same,"viability, T/C",[27],80.3%
same,"viability, T/C",[28],42%
same,"viability, T/C",[29],12.3%
same,"viability, T/C",[30],5.16%
same,"viability, T/C",[31],115%
same,"viability, T/C",[32],104%
same,"viability, T/C",[33],79.3%
same,"viability, T/C",[34],43.5%
same,"viability, T/C",[35],10.6%
same,"viability, T/C",[36],5.67%
